Test results reported in patent publication US5128338A, “Imidazo [1,2-c] quinazoline compounds” (priority 1990, dated 1992).

Tests used:
[1] = target: central receptors for benzodiazepines; assay: Displacement of [3H]-RO 151788, rat central nervous system microsomal fractions; format: binding; conditions: corrected for DMSO, read-out: K0.5, central receptors, [^3 H]--RO 151788
[2] = target: T1, peripheral receptors for benzodiazepines ([^3 H]-PK 11195) (Rattus norvegicus, UniProt P16257); assay: Displacement of [3H]-PK 11195, rat heart microsomal fractions; format: binding; conditions: corrected for DMSO, read-out: K0.5, peripheral receptors, [^3 H]--PK 11195;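 also: radioligand binding with bound label split from free by vacuum filtration, then quantified through liquid scintillation counting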
T1 construct: on microsomal fractions from rat heart; from tissue; host or cells: rat heart, microsomal fractions

[3] = target: T2, peripheral receptors for benzodiazepines ([^3 H]-R05-4864) (Rattus norvegicus, UniProt P16257); assay: Displacement of [3H]-R05-4864, rat heart microsomal fractions; format: binding; conditions: corrected for DMSO, read-out: K0.5, peripheral receptors, [^3 H]--RO 54864;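 also: Read-out is filter-retained bound radioligand, separated from free ligand by vacuum filtration over GF/C and counted by liquid scintillation, with compounds first dissolved in DMSO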
T2 construct: on microsomal fractions from rat heart; from tissue; host or cells: rat heart, microsomal fractions

porcine coronary = assay: Porcine coronary relaxation (PGF2α-precontracted coronary segments); design: species or system pig (Yucatan mini pig); conditions: for EC20 / EC50: Sus scrofa, porcine coronary segments, 37° C., PGF2α 4.10^-6 M, corrected for DMSO; for EC20: read-out: DE20, effect on coronary tension induced by PGF2α; for EC50: read-out: DE50, effect on coronary tension induced by PGF2α
Procedure: All the products studied were dissolved in DMSO at a concentration of 10^-2 M, then diluted to the desired concentrations in the experimental media. All of the ED20, ED50 and K0.5 values were corrected for the values obtained with DMSO under the same conditions of dilution.
Coronaries were taken on the heart of pigs (Yucatan mini pig), anesthetized under stresnil and pentobarbital. Proximal segments of the coronary were placed in an organ tank filled with Ringer solution at 37° C. The segments were tightened progressively to a base tension of around 6 g and contracted by the addition of PGF2α at a concentration of 4.10^-6 M. The potential of the products of the present invention to relax the coronary artery were then tested.
All of the compounds were tested for their capacity to relax the porcine coronary precontracted by PGF2α.

Row | IC50 [1] [µM] | IC50 [2] [µM] | IC50 [3] [µM] | EC50 (porcine coronary) [µM] | level of relaxation obtained as well as the 50% effect value (K0.5) obtained by displacement (porcine coronary; overall judgement of relaxation and K0.5) | SMILES | EC20 (porcine coronary) [µM]
1 | > 100 | 0.26 | 0.58 | 1 |  | CCN(CC)C(=O)Cn1c(=O)n2cc(-c3ccco3)nc2c2ccccc21 [Example 21, 2-(2-furyl)-6-N,N-diethylaminocarbonylmethyl-5-oxo-5,6-dihydroimidazo[1,2-c]quinazoline] | 3.89
2 | 100 | > 100 | 60 | > 100 |  | CCOC(=O)CCCn1c(=O)n2cc(-c3ccccc3)nc2c2ccccc21 [Example 27, 2-phenyl-6-ethoxycarbonylpropyl-5-oxo-5,6-dihydroimidazo[1,2-c]quinazoline] | > 100
3 | > 100 | 0.0024 | 0.0031 |  | particularly favorable | CCCN(CCC)C(=O)Cn1c(=O)n2c(C)c(-c3cccc(Cl)c3)nc2c2ccccc21 [Example 32, 2-(m-chlorophenyl)-3-methyl-6-N,N-dipropylaminocarbonylmethyl-5-oxo-5,6-dihydroimidazo[1,2-c]quinazoline] | 

The remaining lines, values behind:

Row | SMILES | IC50 [1] [µM] | IC50 [2] [µM] | IC50 [3] [µM] | EC50 (porcine coronary) [µM] | level of relaxation obtained as well as the 50% effect value (K0.5) obtained by displacement (porcine coronary; overall judgement of relaxation and K0.5) | EC20 (porcine coronary) [µM]
4 | CCN(CC)C(=O)Cn1c(=O)n2cc(-c3cccc(Cl)c3)nc2c2ccccc21 [Example 19, 2-(m-chlorophenyl)-6-N,N-diethylaminocarbonylmethyl-5-oxo-5,6-dihydroimidazo[1,2-c]quinazoline] | > 100 | 0.058 | 0.05 | 2.36 |  | 23.6
5 | CCN(CC)C(=O)Cn1c(=O)n2cc(-c3ccsc3)nc2c2ccccc21 [Example 22, 2-(3-thienyl)-6-N,N-diethylaminocarbonylmethyl-5-oxo-5,6-dihydroimidazo[1,2-c]quinazoline] | > 100 | 0.2 | 0.13 | 0.73 |  | 3.51
6 | CC(C)CNC(=O)Cn1c(=O)n2cc(-c3ccccc3)nc2c2ccccc21 [Example 24, 2-phenyl-6-N-isobutylaminocarbonylmethyl-5-oxo-5,6-dihydroimidazo[1,2-c]quinazoline] | > 100 | > 100 | > 100 | 0.99 |  | 24.1
7 | CCN(CC)C(=O)CCCn1c(=O)n2cc(-c3ccccc3)nc2c2ccccc21 [Example 26, 2-phenyl-6-N,N-diethylaminocarbonylpropyl-5-oxo-5,6-dihydroimidazo[1,2-c]quinazoline] | 100 | 10 | 2.3 | 7.67 |  | 45.3
